The values that follow come from ChEMBL document CHEMBL1141760, “Polyhydroxylated spirostanol saponins from the tubers of Dioscorea polygonoides” (J Nat Prod, 2005).

One may read the IC50 as the point on the concentration scale where inhibition reaches its midpoint. High values mean lower potency, low ones higher potency.

The structures appear in SMILES notation.

For one assay, the system named is HL-60. The assay can be described thus: Cytotoxicity against human HL60 cells by MTT assay. It is filed as functional, cell-based. A general note: Tetrazolium assays rely on reduction of a dye to a coloured formazan, in cell work by metabolically active cells.
For a further assay, the system named is HSC-2. Put plainly: Cytotoxicity against human HSC2 cells by MTT assay. The class given is functional, cell-based.

Regarding `C[C@@H]1O[C@@H](O[C@H]2[C@H](O[C@H]3CC[C@@]4(C)C(=CC[C@H]5[C@@H]6C[C@@H]7O[C@@]8(OC[C@H](C)[C@@H](O)[C@@H]8O)[C@@H](C)[C@@H]7[C@@]6(C)CC[C@@H]54)C3)O[C@H](CO)[C@@H](O)[C@@H]2O)[C@H](O)[C@H](O)[C@H]1O`, the IC50 in the assay with HL-60 and in the assay on HSC-2 was above 200 µM each time.
As for `C[C@H]1CO[C@@]2(O[C@H]3C[C@H]4[C@@H]5CC=C6C[C@@H](O[C@@H]7O[C@H](CO)[C@@H](O)[C@H](O)[C@H]7O[C@@H]7O[C@@H](C)[C@H](O)[C@@H](O)[C@H]7O)CC[C@]6(C)[C@H]5C[C@H](O)[C@]4(C)[C@@]3(O)[C@@H]2C)[C@@H](O)C1`, the IC50 in the assay on HL-60 and in the assay on HSC-2 was above 200 µM throughout.
For the compound `C[C@H]1CO[C@@]2(O[C@H]3C[C@@]4(O)[C@@H]5CC=C6C[C@@H](O)CC[C@]6(C)[C@H]5CC[C@]4(C)[C@@]3(O)[C@@H]2C)[C@@H](O)C1`, the IC50 in the assay with HL-60 and in the assay with HSC-2 was above 200 µM each time.
`C[C@H]1CO[C@@]2(O[C@H]3C[C@@]4(O)[C@@H]5CC=C6C[C@@H](O[C@@H]7O[C@H](CO)[C@@H](O)[C@H](O)[C@H]7O[C@@H]7O[C@@H](C)[C@H](O)[C@@H](O)[C@H]7O)CC[C@]6(C)[C@H]5CC[C@]4(C)[C@@]3(O)[C@@H]2C)[C@@H](O)C1`: the IC50 with HL-60 and in the assay with HSC-2 was above 200 µM in each case.
For `C[C@H]1CO[C@@]2(O[C@H]3C[C@H]4[C@@H]5CC=C6C[C@@H](O)CC[C@]6(C)[C@H]5C[C@H](O)[C@]4(C)[C@@]3(O)[C@@H]2C)[C@@H](O)C1`, the IC50 with HL-60 and with HSC-2 was above 200 µM each time.
